According to patent US20090062273A1, “3-H-pyrazolopyridines and salts thereof, pharmaceutical compositions comprising same, methods of preparing same and uses of same” (priority 2006, published 2009):

Experiments:
Tie2 [1] = molecular target: T1, Tie2 (Homo sapiens, UniProt Q02763); parameters: expressed in transfected cells; host or cells: CHO (CHO Tie2/DHFR); conditions: Albert et al. Mol. Cancer. Ther. 2006, 5, 995; cited from earlier work
Target sequence in this assay (Q02763 23-1124, species assumed): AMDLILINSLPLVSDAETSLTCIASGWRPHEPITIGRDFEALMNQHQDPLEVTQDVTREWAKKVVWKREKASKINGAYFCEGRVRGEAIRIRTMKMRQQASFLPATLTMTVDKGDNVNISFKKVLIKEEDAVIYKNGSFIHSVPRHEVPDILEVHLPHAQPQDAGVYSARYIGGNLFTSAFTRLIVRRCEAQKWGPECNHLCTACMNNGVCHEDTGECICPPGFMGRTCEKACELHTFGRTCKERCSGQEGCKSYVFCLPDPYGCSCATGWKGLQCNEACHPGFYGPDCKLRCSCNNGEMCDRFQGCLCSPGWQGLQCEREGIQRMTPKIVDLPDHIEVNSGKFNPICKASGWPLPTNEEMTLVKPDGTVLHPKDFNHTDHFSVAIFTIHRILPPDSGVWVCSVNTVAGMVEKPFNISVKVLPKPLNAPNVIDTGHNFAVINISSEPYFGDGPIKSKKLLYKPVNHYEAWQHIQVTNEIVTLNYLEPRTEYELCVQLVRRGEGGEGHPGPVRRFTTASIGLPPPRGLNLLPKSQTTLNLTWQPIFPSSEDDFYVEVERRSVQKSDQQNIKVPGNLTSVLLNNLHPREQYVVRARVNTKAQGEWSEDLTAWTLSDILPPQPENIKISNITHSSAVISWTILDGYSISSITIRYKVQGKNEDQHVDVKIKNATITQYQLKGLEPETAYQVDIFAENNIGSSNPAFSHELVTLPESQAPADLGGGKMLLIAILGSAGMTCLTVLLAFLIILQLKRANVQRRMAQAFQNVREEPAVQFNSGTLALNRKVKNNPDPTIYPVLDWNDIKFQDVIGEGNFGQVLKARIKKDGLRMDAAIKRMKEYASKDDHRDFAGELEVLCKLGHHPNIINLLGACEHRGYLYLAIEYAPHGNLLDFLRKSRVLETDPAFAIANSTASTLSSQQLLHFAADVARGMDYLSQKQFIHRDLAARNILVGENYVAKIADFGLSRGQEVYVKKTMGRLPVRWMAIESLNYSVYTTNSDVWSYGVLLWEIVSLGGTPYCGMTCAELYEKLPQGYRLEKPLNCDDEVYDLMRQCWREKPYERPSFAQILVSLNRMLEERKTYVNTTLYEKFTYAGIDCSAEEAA

Tie2 [2] = molecular target: T1, Tie2; parameters: expressed in transfected cells; host or cells: CHO (CHO Tie2/DHFR); conditions: more potent against other kinases than against Tie2; cited from earlier work
Target sequence in this assay (Q02763 23-1124, species assumed): as above

Tie2 [3] = molecular target: T1, Tie2; test: Tie2 ELISA assay (cellular Tie2 autophosphorylation); format: cell-based; parameters: expressed in transfected cells; host or cells: CHO (CHO Tie2/DHFR); conditions: CHO cells stably transfected with Tie2, stimulated by angiopoietin-2; Tie2 autophosphorylation by sandwich-ELISA; read-out: Tie 2 activity (assay 1)
Procedure: Cellular activity of compounds of the present invention as inhibitors of Tie2 kinase activity was measured employing a Tie2 ELISA assay as described in the following paragraphs. Herein CHO cell-cultures, which are stably transfected by known techniques with Tie2 using DHFR deficiency as selection marker, are stimulated by angiopoietin-2. The specific autophosphorylation of Tie2 receptors is quantified with a sandwich-ELISA using anti-Tie2 antibodies for catch and anti-phosphotyrosine antibodies coupled to HRP for detection.
• 96 well tissue culture plate, sterile, Greiner • 96 well FluoroNunc plate MaxiSorp Surface C, Nunc • 96 well plate polypropylene for compound dilution in DMSO • CHO Tie2/DHFR (transfected cells) • PBS−; PBS++, DMSO • MEM alpha Medium with Glutamax-I without Ribonucleosides and Deoxyribonucleosides (Gibco #32561-029) • with 10% FCS after dialysis! and 1% PenStrep • Lysis buffer: 1 Tablet “Complete” protease inhibitor • 1 cap Vanadate (1 mL>40 mg/mL; working solution 2 mM) • ad 50 mL with Duschl-Puffer • pH 7.6 • Anti-Tie2-antibody 1:425 in Coating Buffer pH 9.6 • Stock solution: 1.275 mg/mL>working.: 3 μg/mL • PBST: 2 bottles PBS (10×)+10 ml Tween, fill up with VE-water • RotiBlock 1:10 in VE-water • Anti-Phosphotyrosine HRP-Conjugated 1:10000 in 3% TopBlock • 3% TopBlock in PBST • BM Chemiluminescence ELISA Substrate (POD) • solution B 1:100 solution A • SF9 cell culture medium • Ang2-Fc in SF9 cell culture medium
• Dispense 5×10^4 cells/well/98 μL in 96 well tissue culture plate • Incubate at 37° C./5% CO2 • After 24 h add compounds according to desired concentrations • Add also to control and stimulated values without compounds 2 μL DMSO • And mix for a few min at room temperature • Add 100 μL Ang2-Fc to all wells except control, which receives insect medium • Incubate 20 min at 37° C. • Wash 3× with PBS++ • Add 100 μl Lysis buffer/well and shake a couple of min at room temperature • Store lysates at […] before utilizing for the ELISA
• Coat 96 well FluoroNunc Plate MaxiSorp Surface C with anti-Tie2 mAb 1:425 in Coating buffer pH 9.6; 100 μL/well overnight at 4° C. • Wash 2× with PBST • Block plates with 250 μL/well RotiBlock 1:10 in VE-water • Incubate for 2 h at room temperature or overnight at 4° C. shaking • Wash 2× in PBST • Add thawed lysates to wells and incubate overnight shaking at 4° C. • Wash 2× with PBST • Add 100 μL/well anti-Phosphotyrosine HRP-Conjugated 1:10000 in 3% TopBlock (3% TopBlock in PBST) and incubate overnight under shaking • Wash 6× with PBST • Add 100 μL/well BM Chemiluminescence ELISA Substrate (POD) solutions 1 und 2 (1:100) • Determine luminescence with the LumiCount. Assay 2: Tie-2-Kinase HTRF-Assay without Kinase Preactivation
Target sequence in this assay (Q02763 23-1124, species assumed): as above

Tie2 [4] = molecular target: T1, Tie2; test: Tie-2-Kinase HTRF-Assay without kinase preactivation; format: biochemical; parameters: fusion protein of GST and the intracellular domains of Tie-2; GST; made in house; host or cells: insect cells (Hi-5); conditions: GST-Tie-2 intracellular domains, 10 μM ATP
From the text: Tie2-inhibitory activity of compounds of the present invention was quantified employing two Tie2 HTRF assay as described in the following paragraphs.
A recombinant fusion protein of GST and the intracellular domains of Tie-2, expressed in insect cells (Hi-5) and purified by Glutathion-Sepharose affinity chromatography was used as kinase. Alternatively, commercially available GST-Tie2-fusion protein (Upstate Biotechnology, Dundee, Scotland) can be used As substrate for the kinase reaction the biotinylated peptide biotin-Ahx-EPKDDAYPLYSDFG (C-terminus in amid form) was used which can be purchased e.g. from the company Biosynthan GmbH (Berlin-Buch, Germany). Detection of phosphorylated product is achieved specifically by a trimeric detection complex consisting of the phosphorylated substrate, streptavidin-XLent (SA-XLent) which binds to biotin, and Europium Cryptate-labeled anti-phosphotyrosine antibody PT66 which binds to phosphorylated tyrosine.
Tie-2 (3.5 ng/measurement point) was incubated for 60 min at 22° C. in the presence of 10 μM adenosine-tri-phosphate (ATP) and 1 μM substrate peptide (biotin-Ahx-EPKDDAYPLYSDFG-NH2) with different concentrations of test compounds (0 μM and concentrations in the range 0.001-20 μM) in 5 μl assay buffer [50 mM Hepes/NaOH pH 7, 10 mM MgCl2, 0.5 mM MnCl2, 1.0 mM dithiothreitol, 0.01% NP40, protease inhibitor mixture (“Complete w/o EDTA” from Roche, 1 tablet per 2.5 ml), 1% (v/v) dimethylsulfoxide]. The reaction was stopped by the addition of 5 μl of an aqueous buffer (25 mM Hepes/NaOH pH 7.5, 0.28% (w/v) bovine serum albumin) containing EDTA (90 mM) and the HTRF (Homogeneous Time Resolved Fluorescence) detection reagents streptavidine-XLent (0.2 μM, from Cis Biointernational, Marcoule, France) and PT66-Eu-Chelate (0.3 ng/μl; a europium-chelate labelled anti-phospho-tyrosine antibody from Perkin Elmer).
The resulting mixture was incubated 1 h at 22° C. to allow the binding of the biotinylated phosphorylated peptide to the streptavidine-XLent and the PT66-Eu-Chelate. Subsequently the amount of phosphorylated substrate peptide was evaluated by measurement of the resonance energy transfer from the PT66-Eu-Chelate to the streptavidine-XLent. Therefore, the fluorescence emissions at 620 nm and 665 nm after excitation at 350 nm was measured in a HTRF reader, e.g. a Rubystar (BMG Labtechnologies, Offenburg, Germany) or a Viewlux (Perkin-Elmer). The ratio of the emissions at 665 nm and at […] was taken as the measure for the amount of phosphorylated substrate peptide. The data were normalised (enzyme reaction without inhibitor=0% inhibition, all other assay components but no enzyme=100% inhibition) and IC50 values were calculated by a 4 parameter fit using an inhouse software.
Target sequence in this assay (Q02763 770-1124 limits assumed, species assumed): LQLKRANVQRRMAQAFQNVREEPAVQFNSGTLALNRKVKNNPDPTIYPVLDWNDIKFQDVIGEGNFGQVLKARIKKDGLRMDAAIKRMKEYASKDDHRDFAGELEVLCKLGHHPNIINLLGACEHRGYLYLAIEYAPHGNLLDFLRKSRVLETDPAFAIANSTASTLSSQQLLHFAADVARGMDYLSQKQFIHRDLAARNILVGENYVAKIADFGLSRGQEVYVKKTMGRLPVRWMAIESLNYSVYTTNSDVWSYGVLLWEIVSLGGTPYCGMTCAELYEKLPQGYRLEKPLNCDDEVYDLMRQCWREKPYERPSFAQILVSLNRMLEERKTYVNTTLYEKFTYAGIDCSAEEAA

IC50 (Tie2 [3]) [nM]	IC50 (Tie2 [4]) [nM]	Structure (SMILES)	activity as inhibitor of cellular Tie2 autophosphorylation (Tie2 [1])	potency against at least 5 other kinase targets relative to Tie2 (Tie2 [2]) [times]
		Cc1ccc(F)c(NC(=O)Nc2ccc(-c3cccc4[nH]nc(N)c34)cc2)c1 [Abt-869]	only modest activity	> 10
< 501	< 501	Cn1ncc2c(-c3ccc(NC(=O)Nc4ccc(CN5CCN(CC6CC6)CC5)c(C(F)(F)F)c4)cc3)cncc21 [Example 13.26, 1-[4-(4-Cyclopropylmethyl-piperazin-1-ylmethyl)-3-trifluoromethyl-phenyl]-3-[4-(1-methyl-1H-pyrazolo[3,4-c]pyridin-4-yl)-phenyl]-urea]		
